Test results taken from the supplement of paper PMC10307832.

Key:
Experiment in all cases: relative viability (nuclei count vs DMSO), 5 days (fraction); higher = more cells survive
[1] = compound: COc1cc2c(Oc3ccc4[nH]c(C)cc4c3F)ncnc2cc1OCCCN1CCCC1 [Cediranib] + C[C@@H](Oc1cc(-c2cnn(C3CCNCC3)c2)cnc1N)c1c(Cl)ccc(F)c1Cl [Crizotinib] (partner 1 µM)
Outline: (§1)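 Relative viability equals treated-well nuclei counts divided by vehicle-well nuclei counts. Counts came from 4× images of lung cancer cell lines grown in 1536-well plates for 5 days after pin-tool dosing on the day after seeding. Dosing used one drug alone or a fixed anchor-drug dose plus five library-drug doses (not always all listed) in √10 steps, and values are medians of duplicate plates.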

[2] = compound: COc1cc2c(Oc3ccc4[nH]c(C)cc4c3F)ncnc2cc1OCCCN1CCCC1 [Cediranib] + CC1(C)CCC(c2ccc(Cl)cc2)=C(CN2CCN(c3ccc(C(=O)NS(=O)(=O)c4ccc(N[C@H](CCN5CCOCC5)CSc5ccccc5)c(S(=O)(=O)C(F)(F)F)c4)cc3)CC2)C1 [Navitoclax] (partner 0.5 µM)
Outline: as §1

[3] = compound: COc1cc2c(Oc3ccc4[nH]c(C)cc4c3F)ncnc2cc1OCCCN1CCCC1 [Cediranib] + COc1cc2c(Oc3ccc(NC(=O)C4(C(=O)Nc5ccc(F)cc5)CC4)cc3F)ccnc2cc1OCCCN1CCOCC1 [Foretinib] (partner 0.25 µM)
Outline: as §1

[4] = compound: Nc1ncn([C@H]2C[C@H](O)[C@@H](CO)O2)c(=O)n1 [Decitabine] + CC(=O)Nc1cccc(-n2c(=O)n(C3CC3)c(=O)c3c(Nc4ccc(I)cc4F)n(C)c(=O)c(C)c32)c1 [Trametinib] (partner 0.02 µM)
Outline: as §1

Cell Line: EBC-1
- relative viability ([1]; first compound 0.04 µM): 0.17
- relative viability ([1]; first compound 0.1265 µM): 0.213
- relative viability ([1]; first compound 0.4 µM): 0.21
- relative viability ([1]; first compound 1.265 µM): 0.201
- relative viability ([1]; first compound 4 µM): 0.172
- relative viability ([2]; first compound 0.04 µM): 0.388
- relative viability ([2]; first compound 0.1265 µM): 0.441
- relative viability ([2]; first compound 0.4 µM): 0.37
- relative viability ([2]; first compound 1.265 µM): 0.52
- relative viability ([2]; first compound 4 µM): 0.455
- relative viability ([3]; first compound 0.04 µM): 0.109
- relative viability ([3]; first compound 0.1265 µM): 0.107
- relative viability ([3]; first compound 0.4 µM): 0.103
- relative viability ([3]; first compound 1.265 µM): 0.104
- relative viability ([3]; first compound 4 µM): 0.0908

Cell Line: EKVX
- relative viability ([1]; first compound 0.04 µM): 0.933
- relative viability ([1]; first compound 0.1265 µM): 0.92
- relative viability ([1]; first compound 0.4 µM): 0.936
- relative viability ([1]; first compound 1.265 µM): 0.895
- relative viability ([1]; first compound 4 µM): 0.975
- relative viability ([2]; first compound 0.04 µM): 1.01
- relative viability ([2]; first compound 0.1265 µM): 0.74
- relative viability ([2]; first compound 0.4 µM): 0.912
- relative viability ([2]; first compound 1.265 µM): 0.903
- relative viability ([2]; first compound 4 µM): 1.02
- relative viability ([4]; first compound 0.04 µM): 0.254
- relative viability ([4]; first compound 0.1265 µM): 0.25
- relative viability ([4]; first compound 0.4 µM): 0.259
- relative viability ([4]; first compound 1.265 µM): 0.221
- relative viability ([4]; first compound 4 µM): 0.23
- relative viability ([3]; first compound 0.04 µM): 0.67
- relative viability ([3]; first compound 0.1265 µM): 0.418
- relative viability ([3]; first compound 0.4 µM): 0.74
- relative viability ([3]; first compound 1.265 µM): 0.705
- relative viability ([3]; first compound 4 µM): 0.751

Cell Line: EMC-BAC-2
- relative viability ([1]; first compound 0.04 µM): 0.782
- relative viability ([1]; first compound 0.1265 µM): 0.703
- relative viability ([1]; first compound 0.4 µM): 0.754
- relative viability ([1]; first compound 1.265 µM): 0.785
- relative viability ([1]; first compound 4 µM): 0.853
- relative viability ([2]; first compound 0.04 µM): 1.3
- relative viability ([2]; first compound 0.1265 µM): 1.16
- relative viability ([2]; first compound 0.4 µM): 1.12
- relative viability ([2]; first compound 1.265 µM): 1.17
- relative viability ([2]; first compound 4 µM): 1.06
- relative viability ([4]; first compound 0.1265 µM): 0.935
- relative viability ([4]; first compound 0.4 µM): 0.795
- relative viability ([4]; first compound 1.265 µM): 0.841
- relative viability ([4]; first compound 4 µM): 0.8
- relative viability ([3]; first compound 0.04 µM): 1.04
- relative viability ([3]; first compound 0.1265 µM): 1.11
- relative viability ([3]; first compound 0.4 µM): 0.984
- relative viability ([3]; first compound 1.265 µM): 0.991
- relative viability ([3]; first compound 4 µM): 1.03

Cell Line: EPLC-272H
- relative viability ([1]; first compound 0.04 µM): 0.735
- relative viability ([1]; first compound 0.4 µM): 0.945
- relative viability ([1]; first compound 1.265 µM): 1.04
- relative viability ([1]; first compound 4 µM): 0.906
- relative viability ([2]; first compound 0.04 µM): 1.35
- relative viability ([2]; first compound 0.4 µM): 1.05
- relative viability ([2]; first compound 1.265 µM): 1.15
- relative viability ([2]; first compound 4 µM): 1.27
- relative viability ([4]; first compound 0.04 µM): 0.293
- relative viability ([4]; first compound 0.1265 µM): 0.29
- relative viability ([4]; first compound 1.265 µM): 0.251
- relative viability ([4]; first compound 4 µM): 0.234
- relative viability ([3]; first compound 0.04 µM): 0.634
- relative viability ([3]; first compound 0.4 µM): 0.634
- relative viability ([3]; first compound 4 µM): 0.693

Cell Line: H3255
- relative viability ([1]; first compound 0.04 µM): 0.945
- relative viability ([1]; first compound 0.1265 µM): 0.699
- relative viability ([1]; first compound 0.4 µM): 0.825
- relative viability ([1]; first compound 1.265 µM): 0.925
- relative viability ([1]; first compound 4 µM): 0.861
- relative viability ([2]; first compound 0.04 µM): 0.673
- relative viability ([2]; first compound 0.1265 µM): 0.429
- relative viability ([2]; first compound 0.4 µM): 0.447
- relative viability ([2]; first compound 1.265 µM): 0.453
- relative viability ([2]; first compound 4 µM): 0.376
- relative viability ([4]; first compound 0.1265 µM): 0.686
- relative viability ([4]; first compound 0.4 µM): 0.506
- relative viability ([4]; first compound 1.265 µM): 0.5
- relative viability ([4]; first compound 4 µM): 0.46
- relative viability ([3]; first compound 0.04 µM): 0.788
- relative viability ([3]; first compound 0.4 µM): 0.821
- relative viability ([3]; first compound 1.265 µM): 0.732
- relative viability ([3]; first compound 4 µM): 0.932

Cell Line: HARA
- relative viability ([1]; first compound 0.04 µM): 1.07
- relative viability ([1]; first compound 0.1265 µM): 1.15
- relative viability ([1]; first compound 0.4 µM): 0.991
- relative viability ([1]; first compound 1.265 µM): 1.02
- relative viability ([1]; first compound 4 µM): 1.03
- relative viability ([2]; first compound 0.04 µM): 1.16
- relative viability ([2]; first compound 0.1265 µM): 1.03
- relative viability ([2]; first compound 0.4 µM): 1.15
- relative viability ([2]; first compound 1.265 µM): 1.14
- relative viability ([2]; first compound 4 µM): 1.18
- relative viability ([4]; first compound 0.04 µM): 0.285
- relative viability ([4]; first compound 0.1265 µM): 0.454
- relative viability ([4]; first compound 0.4 µM): 0.491
- relative viability ([4]; first compound 1.265 µM): 0.228
- relative viability ([4]; first compound 4 µM): 0.304
- relative viability ([3]; first compound 0.04 µM): 0.92
- relative viability ([3]; first compound 0.4 µM): 0.766
- relative viability ([3]; first compound 1.265 µM): 0.868
- relative viability ([3]; first compound 4 µM): 0.706

Cell Line: HCC-15
- relative viability ([1]; first compound 0.04 µM): 0.93
- relative viability ([1]; first compound 0.4 µM): 0.787
- relative viability ([1]; first compound 1.265 µM): 0.816
- relative viability ([1]; first compound 4 µM): 0.828
- relative viability ([2]; first compound 0.04 µM): 0.742
- relative viability ([2]; first compound 0.4 µM): 0.693
- relative viability ([2]; first compound 1.265 µM): 0.678
- relative viability ([2]; first compound 4 µM): 0.767
- relative viability ([4]; first compound 0.04 µM): 0.4
- relative viability ([4]; first compound 0.1265 µM): 0.399
- relative viability ([4]; first compound 0.4 µM): 0.353
- relative viability ([4]; first compound 1.265 µM): 0.338
- relative viability ([4]; first compound 4 µM): 0.313
- relative viability ([3]; first compound 0.04 µM): 1.01
- relative viability ([3]; first compound 0.4 µM): 0.946
- relative viability ([3]; first compound 1.265 µM): 1.07
- relative viability ([3]; first compound 4 µM): 1.09

Cell Line: HCC-44
- relative viability ([1]; first compound 0.04 µM): 0.803
- relative viability ([1]; first compound 0.4 µM): 0.774
- relative viability ([1]; first compound 1.265 µM): 0.825
- relative viability ([1]; first compound 4 µM): 0.935
- relative viability ([2]; first compound 0.04 µM): 0.972
- relative viability ([2]; first compound 0.4 µM): 1.01
- relative viability ([2]; first compound 1.265 µM): 0.965
- relative viability ([2]; first compound 4 µM): 1.11
- relative viability ([4]; first compound 0.04 µM): 1.04
- relative viability ([4]; first compound 0.1265 µM): 0.991
- relative viability ([4]; first compound 0.4 µM): 0.833
- relative viability ([4]; first compound 1.265 µM): 0.819
- relative viability ([4]; first compound 4 µM): 0.75

Cell Line: HCC-78
- relative viability ([1]; first compound 0.04 µM): 0.362
- relative viability ([1]; first compound 0.1265 µM): 0.417
- relative viability ([1]; first compound 0.4 µM): 0.301
- relative viability ([1]; first compound 1.265 µM): 0.376
- relative viability ([1]; first compound 4 µM): 0.284
- relative viability ([2]; first compound 0.04 µM): 0.934
- relative viability ([2]; first compound 0.1265 µM): 0.824
- relative viability ([2]; first compound 0.4 µM): 0.764
- relative viability ([2]; first compound 1.265 µM): 0.762
- relative viability ([2]; first compound 4 µM): 0.758
- relative viability ([4]; first compound 0.04 µM): 0.758
- relative viability ([4]; first compound 0.1265 µM): 0.688
- relative viability ([4]; first compound 0.4 µM): 0.581
- relative viability ([4]; first compound 1.265 µM): 0.544
- relative viability ([4]; first compound 4 µM): 0.451
- relative viability ([3]; first compound 0.04 µM): 0.584
- relative viability ([3]; first compound 0.1265 µM): 0.73
- relative viability ([3]; first compound 0.4 µM): 0.576
- relative viability ([3]; first compound 1.265 µM): 0.58
- relative viability ([3]; first compound 4 µM): 0.593
